Assay results published in the NIST ThermoML archive (doi:10.1021/je900468u).
Values joined by “and” are separate entries in the source; they are usually repeats but may differ in a detail not shown here. Identical values can stand only once.

Legend:
[1] = 101 kPa, Liquid; for speed of sound: Pulse-echo method
[2] = refractive index (Na D-line) (dimensionless); details: 101.33 kPa, Liquid, Standard Abbe refractometry
[3] = refractive index (Na D-line) (dimensionless); xn = mol fraction of the nth substance listed; details: 101 kPa, Liquid, Standard Abbe refractometry
[4] = xn = mol fraction of the nth substance listed; details: 101 kPa, Liquid; for speed of sound: Pulse-echo method

c1ccccc1 [benzene]
Details	mass density, [1]	refractive index, [2]	speed of sound, [1] [m/s]
283.15 K	889.5 kg/m3	1.50765	1371
298.15 K	873.9 kg/m3 and 873.6 kg/m3	1.49774	1299

C1CCCCC1 [cyclohexane]
Details	mass density, [1] [kg/m3]	refractive index, [2]	speed of sound, [1] [m/s]
283.15 K	787.8	1.43193	1329
298.15 K	773.9	1.4236	1255

C1CCCCCCC1 [cyclooctane]
298.15 K
Details	mass density [kg/m3]	refractive index	speed of sound [m/s]
[1]	831.5	–	1391
[2]	–	1.45598	–

CCc1ccccc1 [ethylbenzene]
Details	mass density, [1] [kg/m3]	refractive index, [2]	speed of sound, [1] [m/s]
283.15 K	875.7	1.50129	1382
298.15 K	862.5	1.49304	1319

CCc1ccccc1 [ethylbenzene] + C1CCCCC1
Details	mass density, [4] [kg/m3]	refractive index, [3]	speed of sound, [4] [m/s]
283.15 K, x2 = 0	875.7	1.50129	1382
283.15 K, x2 = 0.0476	871.4	1.49802	1377
283.15 K, x2 = 0.0982	866.9	1.49455	1372
283.15 K, x2 = 0.1983	857.9	1.48762	1364
283.15 K, x2 = 0.2982	848.9	1.48066	1356
283.15 K, x2 = 0.3973	840.1	1.47373	1349
283.15 K, x2 = 0.5016	830.7	1.46641	1342
283.15 K, x2 = 0.6008	821.8	1.45942	1337
283.15 K, x2 = 0.6995	813.2	1.45257	1332
283.15 K, x2 = 0.7998	804.4	1.44558	1329
283.15 K, x2 = 0.8967	796.3	1.43898	1328
283.15 K, x2 = 0.9451	792.3	1.43569	1328
298.15 K, x2 = 0	862.5	1.49304	1319
298.15 K, x2 = 0.0476	858.2	1.48992	1314
298.15 K, x2 = 0.0982	853.7	1.48645	1309
298.15 K, x2 = 0.1983	844.7	1.47947	1300
298.15 K, x2 = 0.2982	835.6	1.47245	1291
298.15 K, x2 = 0.3973	826.7	1.46552	1283
298.15 K, x2 = 0.5016	817.2	1.45815	1275
298.15 K, x2 = 0.6008	808.3	1.45116	1268
298.15 K, x2 = 0.6995	799.5	1.44433	1263
298.15 K, x2 = 0.7998	790.7	1.43731	1258
298.15 K, x2 = 0.8967	782.4	1.43062	1255
298.15 K, x2 = 0.9451	778.4	1.42735	1254

CCc1ccccc1 [ethylbenzene] + C1CCCCCCC1
298.15 K, x2 = 0
Details	mass density [kg/m3]	refractive index	speed of sound [m/s]
[3]	–	1.49304	–
[4]	862.5	–	1319

CCc1ccccc1 [ethylbenzene] + CC1CCCCC1
x2 = 0
Details	mass density, [4] [kg/m3]	refractive index, [3]	speed of sound, [4] [m/s]
283.15 K	875.7	1.50129	1382
298.15 K	862.5	1.49304	1319

CC1CCCCC1 [methylcyclohexane]
Details	mass density, [1] [kg/m3]	refractive index, [2]	speed of sound, [1] [m/s]
283.15 K	777.9	1.42833	1281
298.15 K	765.1	1.42062	1215

CC1CCCCC1 [methylcyclohexane] + CCc1ccccc1
Details	mass density, [4] [kg/m3]	refractive index, [3]	speed of sound, [4] [m/s]
283.15 K, x1 = 0.0494	870.3	1.49728	1376
283.15 K, x1 = 0.0975	865.2	1.49353	1369
283.15 K, x1 = 0.1983	854.6	1.4855	1356
283.15 K, x1 = 0.2981	844.4	1.47786	1345
283.15 K, x1 = 0.4008	834.1	1.47018	1333
283.15 K, x1 = 0.5005	824.2	1.46281	1323
283.15 K, x1 = 0.6001	814.6	1.45566	1313
283.15 K, x1 = 0.7006	805.2	1.44856	1304
283.15 K, x1 = 0.7952	796.4	1.44194	1297
283.15 K, x1 = 0.8949	787.3	1.43542	1289
283.15 K, x1 = 0.9495	782.4	1.43163	1285
283.15 K, x1 = 1	777.9	1.42833	1281
298.15 K, x1 = 0.0494	857.2	1.48923	1312
298.15 K, x1 = 0.0975	852.1	1.48542	1305
298.15 K, x1 = 0.1983	841.5	1.47754	1292
298.15 K, x1 = 0.2981	831.2	1.46988	1280
298.15 K, x1 = 0.4008	820.9	1.46219	1268
298.15 K, x1 = 0.5005	811	1.45484	1258
298.15 K, x1 = 0.6001	801.4	1.44771	1247
298.15 K, x1 = 0.7006	791.9	1.44068	1236
298.15 K, x1 = 0.7952	783.1	1.43414	1230
298.15 K, x1 = 0.8949	774.2	1.42751	1222
298.15 K, x1 = 0.9495	769.3	1.4239	1218
298.15 K, x1 = 1	765.1	1.42062	1215
